One data set deals with T1, human PPAR α (Homo sapiens, UniProt Q07869).
T1 construct: expressed in transfected cells; host or cells: HEK293
T1 sequence (Q07869 167-468 limits assumed): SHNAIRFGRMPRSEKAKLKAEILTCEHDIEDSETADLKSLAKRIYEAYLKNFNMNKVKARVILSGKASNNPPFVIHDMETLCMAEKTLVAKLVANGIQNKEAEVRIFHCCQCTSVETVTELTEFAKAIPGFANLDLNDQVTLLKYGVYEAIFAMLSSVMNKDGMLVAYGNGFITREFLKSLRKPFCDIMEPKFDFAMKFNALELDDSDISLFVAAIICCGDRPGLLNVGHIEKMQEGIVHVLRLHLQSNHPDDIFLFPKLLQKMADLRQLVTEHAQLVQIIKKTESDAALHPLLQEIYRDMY
Kind of data set: In vitro PPAR alpha transactivation assay (GAL4-DBD/PPAR-LBD, luciferase reporter, HEK293). The data set is classed as cell-based. The settings on record: for In vitro activation PPAR α % max: fold activation relative to maximum activation obtained with Wy14643 (approx. 20 fold corresponded to 100%); for EC50: transfected HEK293 cells, 24 h compound, five concentrations 0.01 to 30 μM, at least three experiments, means, read-out: In vitro activation PPAR α EC50. From the text: (§1) In Vitro PPAR Alpha and PPAR Gamma Activation Activity.
(§2) The PPAR gene transcription activation assays were based on transient transfection into human HEK293 cells of two plasmids encoding a chimeric test protein and a reporter protein respectively. The chimeric test protein was a fusion of the DNA binding domain (DBD) from the yeast GAL4 transcription factor to the ligand binding domain (LBD) of the human PPAR proteins. The PPAR LBD harbored in addition to the ligand binding pocket also the native activation domain (activating function 2=AF2) allowing the fusion protein to function as a PPAR ligand dependent transcription factor. The GAL4 DBD will force the fusion protein to bind only to Gal4 enhancers (of which none existed in HEK293 cells). The reporter plasmid contained a Gal4 enhancer driving the expression of the firefly luciferase protein. After transfection, HEK293 cells expressed the GAL4-DBD-PPAR-LBD fusion protein. The fusion protein will in turn bind to the Gal4 enhancer controlling the luciferase expression, and do nothing in the absence of ligand. Upon addition to the cells of a PPAR ligand, luciferase protein will be produced in amounts corresponding to the activation of the PPAR protein. The amount of luciferase protein is measured by light emission after addition of the appropriate substrate.
(§3) Cell culture and transfection: HEK293 cells were grown in DMEM+10% FCS. Cells were seeded in 96-well plates the day before transfection to give a confluency of 50-80% at transfection. A total of […] DNA containing 0.64 μg pM1α/γLBD, 0.1 μg pCMVβGal, 0.08 μg pGL2Gal4DBD and 0.02 μg p[…] was transfected per well using FuGene transfection reagent according to the manufacturers instructions (Roche). Cells were allowed to express protein for 48 h followed by addition of compound.
Plasmids: Human PPAR α and γ was obtained by PCR amplification using cDNA synthesized by reverse transcription of mRNA from liver and adipose tissue respectively. Amplified cDNAs were cloned into pCR2.1 and sequenced. The ligand binding domain (LBD) of each PPAR isoform was generated by PCR (PPARα: aa 167—C-terminus; PPARγ: aa 165—C-terminus) and fused to the DNA binding domain (DBD) of the yeast transcription factor GAL4 by subcloning fragments in frame into the vector pM1 generating the plasmids pM1αLBD and pM1γLBD. Ensuing fusions were verified by sequencing. The reporter was constructed by inserting an oligonucleotide encoding five repeats of the GAL4 recognition sequence (5×[…](AG)) into the vector pGL2 promotor (Promega) generating the plasmid pGL2(GAL4)5. pCMVβGal was purchased from Clontech and p[…] was purchased from Promega.
(§4) Luciferase assay: Medium including test compound was aspirated and 100 μl PBS incl. 1 mM Mg++ and Ca++ was added to each well. The luciferase assay was performed using the Lu-cLite kit according to the manufacturers instructions (Packard Instruments). Light emission was quantified by counting SPC mode on a Packard Instruments top-counter. To measure β-galactosidase activity 25 μl supernatant from each transfection lysate was transferred to a new microplate. β-galactosidase assays were performed in the microwell plates using a kit from Promega and read in a microplate reader. The β-galactosidase data were used to normalize (transfection efficiency, cell growth etc.) the luciferase data.
(§5) Compounds: All compounds were dissolved in DMSO and diluted 1:1000 upon addition to the cells. Compounds were tested in quadruple in five concentrations ranging form 0.01 to 30 μM. Cells were treated with compound for 24 h followed by luciferase assay. Each compound was tested in three separate experiments. EC50 values were calculated via non-linear regression using GraphPad PRISM 3.02 (GraphPad Software, San Diego, Calif.). The results were expressed as means.
For orientation: Reporter assays use an easily measured gene product as a stand-in for the process of interest.

The next data set has as its target T2, human PPAR γ (Homo sapiens, UniProt P37231).
T2 construct: PPARγ: aa 165—C-terminus); expressed in transfected cells; host or cells: HEK293
T2 sequence (P37231 238-503 limits assumed): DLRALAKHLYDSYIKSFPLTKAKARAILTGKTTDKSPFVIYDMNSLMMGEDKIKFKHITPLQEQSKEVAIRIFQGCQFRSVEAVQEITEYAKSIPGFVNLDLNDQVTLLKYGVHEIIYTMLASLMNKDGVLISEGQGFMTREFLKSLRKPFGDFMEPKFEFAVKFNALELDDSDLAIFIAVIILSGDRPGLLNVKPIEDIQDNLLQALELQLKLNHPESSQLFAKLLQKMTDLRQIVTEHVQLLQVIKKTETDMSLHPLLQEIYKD
Nature of the data set: In vitro PPAR gamma transactivation assay (GAL4-DBD/PPAR-LBD, luciferase reporter, HEK293). To be noted: for In vitro activation PPAR γ % max: fold activation relative to maximum activation obtained with rosiglitazone (approx. […] fold corresponded to 100%); for EC50: transfected HEK293 cells, 24 h compound, five concentrations 0.01 to 30 μM, at least three experiments, means, read-out: In vitro activation PPAR γ EC50. The format is cell-based.
Source text: as §1, §2, §3
Plasmids: Human PPAR α and γ was obtained by PCR amplification using cDNA synthesized by reverse transcription of mRNA from liver and adipose tissue respectively. Amplified cDNAs were cloned into pCR2.1 and sequenced. The ligand binding domain (LBD) of each PPAR isoform was generated by PCR (PPARα: aa 167—C-terminus; PPARγ: aa 165—C-terminus) and fused to the DNA binding domain (DBD) of the yeast transcription factor GAL4 by subcloning fragments in frame into the vector pM1 generating the plasmids pM1αLBD and pM1γLBD. Ensuing fusions were verified by sequencing.
as §4, §5

SMILES strings stand for the structures.

The term EC50 denotes the midpoint of the concentration-response curve. Turning to `CCO[C@@H](Cc1ccc(OC/C=C(\C)c2ccc(-c3cc(Cl)ccc3OC)cc2)cc1)C(=O)O` [Example 57, (E)-(S)-3-{4-[3-(5′-Chloro-2′-methoxy-biphenyl-4-yl)-but-2-enyloxy]-phenyl}-2-ethoxy-propionic acid], on human PPAR α, the “In vitro activation PPAR α % max” value is 178% and the half-maximal effective concentration (EC50) came out at 0.38 µM. In addition, at human PPAR γ, the “In vitro activation PPAR γ % max” value was 110% and the EC50 stood at 0.7 µM.

In general, melting point refers to the temperature of the solid-liquid transition. Compound `CCOC(=O)[C@H](Cc1ccc(OC/C=C(\C)c2ccc(-c3ccc(C(C)C)cc3)cc2)cc1)OCC` [Example 103, (E)-(S)-Ethyl 2-Ethoxy-3-{4-[3-(4′-isopropyl-biphenyl-4-yl)-but-2-enyloxy]-phenyl}-propionate] came in with a melting point of 70 to 73 °C.

`C/C(=C\COc1ccc(CC(OC(C)C)C(=O)O)cc1)c1ccc(-c2ccccc2)cc1` (racemic) [Example 134, (E)-(S/R)-3-[4-(3-Biphenyl-4-yl-but-2-enyloxy)-phenyl]-2-isopropoxy-propionic acid] showed a melting point of 125 to 127.5 °C. On human PPAR α, the “In vitro activation PPAR α % max” value was determined as 122% and the EC50 was determined as 2.9 µM. For the same compound, on human PPAR γ, the “In vitro activation PPAR γ % max” value was found to be 155% and the EC50 was 0.89 µM.

As to `C/C(=C\COc1ccc(CC(OCCCc2ccccc2)C(=O)O)cc1)c1ccc(-c2ccccc2)cc1` (racemic) [Example 140, (E)-(S/R)-3-[4-(3-Biphenyl-4-yl-but-2-enyloxy)-phenyl]-2-(3-phenyl-propoxy)-propionic acid], the melting point was 115 to 117 °C.

With `CCOC(=O)[C@H](Cc1ccc(OC/C=C(\C)c2ccc3c(c2)Cc2ccccc2-3)cc1)OCC` [Example 9, (E)-(S)-2-Ethoxy-3-{4-[3-(9H-fluoren-2-yl)-but-2-enyloxy]-phenyl}-propionic acid ethyl ester], on human PPAR α, the “In vitro activation PPAR α % max” value is recorded as 234% and the EC50 was 0.038 µM. At human PPAR γ, the “In vitro activation PPAR γ % max” value is listed as 125% and the EC50 is 0.35 µM.

`CCCCOC(Cc1ccc(OC/C=C(\C)c2ccc(-c3ccccc3)cc2)cc1)C(=O)OCC` (racemic) [Example 135, (E)-(S/R)-Ethyl 3-[4-(3-Biphenyl-4-yl-but-2-enyloxy)-phenyl]-2-butoxy-propionate] showed a melting point of 62 to 63.5 °C.

With `CCCCCCOC(Cc1ccc(OC/C=C(\C)c2ccc(-c3ccccc3)cc2)cc1)C(=O)O` (racemic) [Example 138, (E)-(S/R)-3-[4-(3-Biphenyl-4-yl-but-2-enyloxy)-phenyl]-2-hexyloxy-propionic acid], the melting point was 117 to 119 °C.

Take `CCOC(=O)C(Cc1ccc(OC/C=C(\C)c2ccc(-c3ccccc3)cc2)cc1)OC(C)C` (racemic) [Example 133, (E)-(S/R)-Ethyl 3-[4-(3-Biphenyl-4-yl-but-2-enyloxy)-phenyl]-2-isopropoxy-propionate]: the melting point was in the range of 79 to 81 °C.

Regarding `CCO[C@@H](Cc1ccc(OC/C=C(\C)c2ccc(-c3ccc(Br)cc3)cc2)cc1)C(=O)O` [Example 4, (E)-(S)-3-{4-[3-(4′-Bromo-biphenyl-4-yl)-but-2-enyloxy]-phenyl}-2-ethoxy-propionic acid], on human PPAR α, the “In vitro activation PPAR α % max” value was 212% and the EC50 is 3.1 µM. Also, on human PPAR γ, the “In vitro activation PPAR γ % max” value was 156% and the EC50 is 0.72 µM.

As to `CCOC(=O)[C@H](Cc1ccc(OC/C=C/c2cc3ccccc3o2)cc1)OCC` [Example 27], at human PPAR α, the “In vitro activation PPAR α % max” value came out at 185% and the concentration for a half-maximal effect (EC50) worked out at 0.1 µM. At human PPAR γ, the “In vitro activation PPAR γ % max” value was 99% and the EC50 was determined as 0.11 µM.

On to `CCO[C@@H](Cc1ccc(OC/C=C(\C)c2ccc(-c3cc(Br)cc(Br)c3)cc2)cc1)C(=O)O` [Example 124, (E)-(S)-3-{4-[3-(3′,5′-Dibromo-biphenyl-4-yl)-but-2-enyloxy]-phenyl}-2-ethoxy-propionic acid], for which, on human PPAR α, the “In vitro activation PPAR α % max” value came to 102% and the EC50 was 0.35 µM. Further, at human PPAR γ, the “In vitro activation PPAR γ % max” value amounted to 83% and the EC50 was 0.3 µM.

The values are drawn from patent US6867218B2, “Compounds, their preparation and use” (Novo Nordisk A/S, priority 2000, dated 2005).
